Data on seven compounds can be found in publication PMC3944524, “Antimicrobial Activity of the Marine Alkaloids, Clathrodin and Oroidin, and Their Synthetic Analogues” (Marine Drugs, 2014).

Data set [1] concerns Escherichia coli (ATCC 25922). As to the kind of experiment: Broth microdilution antimicrobial assay, Escherichia coli. The data set is classed as cell-based. The method, then:
(§1) Clinical control strains of Enterococcus faecalis (Gram-positive, ATCC 29212), Staphylococcus aureus (Gram-positive, ATCC 25923), Escherichia coli (Gram-negative, ATCC 25922) and a fungal strain, Candida albicans (ATCC 90028), were obtained from Microbiologics Inc. (St. Cloud, MN, USA) and used for the antimicrobial screening. Bacterial strains were grown on Mueller Hinton II agar (MHA, Becton Dickinson, Franklin Lakes, NJ, USA) […] Mueller Hinton II broth (MHB, Becton Dickinson, Franklin Lakes, NJ, USA) and the Candida strain on Sabouraud dextrose agar (SDA, Becton Dickinson, Franklin Lakes, NJ, USA) plates. Media were prepared in MilliQ water, according to the manufacturer's instructions, and autoclaved at 121 °C for 15 min. […] The Candida strain was grown on SDA plates at 28 °C for 18-24 h and suspended into sterile 0.9% saline for the assay. Antimicrobial assays were performed by the broth microdilution method following the guidelines of the Clinical and Laboratory Standards Institute (CLSI) and European Committee on Antimicrobial Susceptibility Testing (EUCAST). […] The Candida suspension was prepared in sterile 0.9% saline solution, and the suspension was diluted in RPMI-1640 media (with L-glutamine, without NaHCO3 and supplemented with 2% glucose and 0.165 M MOPS, buffered to pH 7; Lonza, Basel, Switzerland) to yield a final inoculum of 2.5 × 10^3 CFU/mL in the assay. Assays were carried out in clear 96-well microtiter plates and initiated by dispensing an equal volume of microbial suspension and sample solution diluted into the assay medium. The plates were incubated for 24 h at 37 °C (for Candida, the incubation was at 28 °C for 48 h) with agitation. […] The antimicrobial activity of the samples was calculated from the absorbance values by comparing to untreated controls and expressed as the percentage inhibition of growth. Reference antibiotics were used as positive controls on every assay plate (see Figure 2 for details). […] MIC50 values were determined from the dose-response results by sigmoidal curve fitting with Origin software (OriginLab, Corp., Wellesley Hills, MA, USA).

Data set [2] concerns Enterococcus faecalis (ATCC 29212). As to the kind of experiment: Broth microdilution antimicrobial assay, Enterococcus faecalis. It counts as cell-based. The following applies: for inhibition at 50 µM / inhibition of growth, primary screen: n = 3, hit threshold >80%, 50 µM; for inhibition at 50 µM: read-out: inhibition of growth, primary screen. The procedure:
as §1

Data set [3] has as its system Staphylococcus aureus (ATCC 25923). The data set is described as follows: Broth microdilution antimicrobial assay, Staphylococcus aureus. The following applies: for SI (selectivity index): S. aureus MIC50 vs Huh-7 cytotoxicity IC50; for MIC90 / inhibition at 50 µM / MIC50: Staphylococcus aureus; for inhibition at 50 µM / inhibition of growth, primary screen: n = 3, hit threshold >80%, 50 µM; for inhibition at 50 µM: read-out: inhibition of growth, primary screen; for MIC50: sigmoidal curve fitting. It counts as cell-based. The method, then:
as §1

The subject of data set [4] is Candida albicans (ATCC 90028). As to the kind of experiment: Broth microdilution antifungal assay, Candida albicans. The data set is classed as cell-based. The method, then: Clinical control strains of Enterococcus faecalis (Gram-positive, ATCC 29212), Staphylococcus aureus (Gram-positive, ATCC 25923), Escherichia coli (Gram-negative, ATCC 25922) and a fungal strain, Candida albicans (ATCC 90028), were obtained from Microbiologics Inc. (St. Cloud, MN, USA) and used for the antimicrobial screening. Bacterial strains were grown on Mueller Hinton II agar (MHA, Becton Dickinson, Franklin Lakes, NJ, USA) slants and Mueller Hinton II broth (MHB, Becton Dickinson, Franklin Lakes, NJ, USA) and the Candida strain on Sabouraud dextrose agar (SDA, Becton Dickinson, Franklin Lakes, NJ, USA) plates. Media were prepared in MilliQ water, according to the manufacturer’s instructions, and autoclaved at 121 °C for 15 min. Prior to the assay, bacterial suspensions were prepared in MHB from fresh slant cultures and incubated at 37 °C for 16–20 h at 100 rpm. The Candida strain was grown on SDA plates at 28 °C for 18–24 h and suspended into sterile 0.9% saline for the assay.
Antimicrobial assays were performed by the broth microdilution method following the guidelines of the Clinical and Laboratory Standards Institute (CLSI) and European Committee on Antimicrobial Susceptibility Testing (EUCAST). Bacterial suspensions were prepared as described above and diluted with MHB to obtain a final inoculum of 5 × 10^5 colony-forming units (CFU)/milliliters in the assay (determined on the basis of absorbance values at 620 nm previously calibrated against plate counts). The Candida suspension was prepared in sterile 0.9% saline solution, and the suspension was diluted in RPMI-1640 media (with L-glutamine, without NaHCO3 and supplemented with 2% glucose and 0.165 M MOPS, buffered to pH 7; Lonza, Basel, Switzerland) to yield a final inoculum of 2.5 × 10^3 CFU/mL in the assay. Assays were carried out in clear 96-well microtiter plates and initiated by dispensing an equal volume of microbial suspension and sample solution diluted into the assay medium. The plates were incubated for 24 h at 37 °C (for Candida, the incubation was at 28 °C for 48 h) with agitation. Absorbance was measured at 620 nm with a plate reader at 0, 4 and 24 h with the bacteria and at 0, 24 and 48 h with Candida. The antimicrobial activity of the samples was calculated from the absorbance values by comparing to untreated controls and expressed as the percentage inhibition of growth. Reference antibiotics were used as positive controls on every assay plate (see Figure 2 for details). […] MIC50 values were determined from the dose-response results by sigmoidal curve fitting with Origin software (OriginLab, Corp., Wellesley Hills, MA, USA).

Data set [5] is described as follows: Mammalian cell cytotoxicity, ATP assay (CellTiter-Glo). The data set is classed as cell-based, human. The following applies: human, Huh-7 cells, ATP assay, 24 h exposure, average of two dose-response experiments. The method, then:
(§2) Huh-7 cells (originating from human hepatocellular carcinoma) were kindly provided by Prof. Ralf Bartenschlager (University of Heidelberg, Heidelberg, Germany). […] The cells were incubated at 37 °C in a humidified atmosphere with 5% CO2. The effect of the most promising compounds on the metabolic activity of Huh-7 hepatocytes was assessed by intracellular ATP quantitation (Promega’s CellTiter-Glo Cell Viability Assay, Madison, WI, USA). In brief, cells were seeded at 20,000 cells/well on white-walled 96-well microplates (ViewPlate, PerkinElmer Inc., Wellesley, MA, USA) and incubated at 37 °C, 5% CO2 and 95% humidity overnight and then exposed to the compounds for 24 h. Following the exposure, cells were washed with 100 µL PBS, and 50 µL of fresh assay media and 50 µL of the CellTiter-Glo reagent were added into the wells. After 2 min of shaking and 10 min incubation at rt, luminometric signal was measured using a Varioskan Flash plate reader (Thermo Fisher Scientific, Vantaa, Finland). […] The IC50 values were calculated by fitting the data into sigmoidal dose-response curves with the Origin software.

A further data set concerns Huh-7 cells. The description is as above. It counts as cell-based, human. The method, then:
as §2

[6] abbreviates: 50 µM, 24 h, n = 3, hit threshold >80%.
The mark [7] stands for this setting: Enterococcus faecalis, ATCC29212, 24 h.
Setting [8] is: ATCC25923, S. aureus ATCC 25923, 24 h.
Setting [9] is: 50 µM, 48 h, n = 3, hit threshold >80%.

Values after ≈ are worked out from the molar mass of the structure shown.

Regarding `Nc1nc(/C=C/CNC(=O)c2cc(Br)c(Br)[nH]2)c[nH]1` [Compound 2b, (E)-N-(3-(2-amino-1H-imidazol-4-yl)allyl)-4,5-dibromo-1H-pyrrole-2-carboxamide], the “inhibition of growth, primary screen” value in data set [1] (setting [6]) and in data set [4] (setting [9]) was “inactive” each time. Besides, the inhibition at 50 µM in data set [2] (setting [7]) is roughly 50%; in data set [3] (ATCC25923, 24 h), greater than 90%. The “SI (selectivity index)” value in data set [3] was greater than 3.3. The same compound displayed an MIC90 in data set [3] (ATCC25923, 24 h) of 100 µM. In addition, in data set [3] (setting [8]), the MIC50 was determined as 30.6 µM (≈ 11.9 µg/mL). The half-inhibitory concentration (IC50) at 24 h in data set [5] is greater than 100 µM.
In the case of “Polymyxin-B sulfate [reference compound]”, the average cytotoxicity in the data set with Huh-7 cells (15,000 IU/mL, positive control, 24 h) is 88%.
With `Nc1nc(-c2cccc(NC(=O)c3c[nH]c4ccccc34)c2)c[nH]1` [Compound 6e], the “inhibition of growth, primary screen” value in data set [1] (setting [6]), in data set [2] (24 h), in data set [3] (24 h) and in data set [4] (setting [9]) was “inactive” in each case.
As for `Cl.Nc1nc(-c2cccc(NC(=O)c3cc4cc(OCc5ccccc5)ccc4[nH]3)c2)c[nH]1` [Compound 6h, 2-Amino-4-(3-(5-(benzyloxy)-1H-indole-2-carboxamido)phenyl)-1H-imidazol-3-ium chloride], the melting point is 175 to 178 °C. For the same compound, the “inhibition of growth, primary screen” value in data set [1] (setting [6]) is on record as “active”. The “SI (selectivity index)” value in data set [1] (E. coli MIC50 vs Huh-7 cytotoxicity IC50) was found to be 0.7. In data set [1] (Escherichia coli, ATCC25922, 24 h), this compound returned an MIC90 of 50 µM. The compound also yielded an MIC50 in data set [1] (Escherichia coli, ATCC25922, E. coli ATCC 25922, 24 h, sigmoidal curve fitting) of 30.4 µM. Further, the “inhibition of growth, primary screen” value in data set [2] (24 h) is recorded as “active”. Moreover, in data set [2] (E. faecalis MIC50 vs Huh-7 cytotoxicity IC50), the “SI (selectivity index)” value was 2.7. Further, the MIC90 in data set [2] (setting [7]) amounted to 12.5 µM. This compound also gave an MIC90 in data set [2] (Enterococcus faecalis, ATCC29212, E. faecalis ATCC 29212, 24 h) of 5.7 mg/L. In data set [2] (Enterococcus faecalis, ATCC29212, E. faecalis ATCC 29212, 24 h, sigmoidal curve fitting), this compound returned an MIC50 of 8 µM. Moreover, in data set [3] (24 h), the “inhibition of growth, primary screen” value is recorded as “active”. Besides, the “SI (selectivity index)” value in data set [3] was 2.9. For the same compound, the MIC90 in data set [3] (ATCC25923, 24 h) worked out at 12.5 µM. In data set [3] (setting [8]), this compound gave an MIC90 of 5.7 mg/L and an MIC50 of 7.3 µM. Moreover, in data set [4] (setting [9]), the “inhibition of growth, primary screen” value is recorded as “no activity”. Moreover, in data set [5], the IC50 at 24 h turned out to be 21.2 µM.
For `C[C@@H]1[C@H](O)[C@@H](C)/C=C/C=C/C=C/C=C/C=C/C=C/C=C/[C@H](O[C@@H]2O[C@H](C)[C@@H](O)[C@H](N)[C@@H]2O)C[C@@H]2O[C@](O)(C[C@@H](O)C[C@@H](O)[C@H](O)CC[C@@H](O)C[C@@H](O)CC(=O)O[C@H]1C)C[C@H](O)[C@H]2C(=O)O` [amphotericin B, reference compound], the MIC90 amounted to 0.5 µM in data set [4] (Candida albicans, ATCC90028, 48 h) and 0.5 mg/L in data set [4] (Candida albicans, ATCC90028, C. albicans ATCC 90028, 48 h).
Consider `Nc1nc(/C=C/CNC(=O)c2ccc[nH]2)c[nH]1` [Compound 2a, (E)-N-(3-(2-amino-1H-imidazol-4-yl)allyl)-1H-pyrrole-2-carboxamide], for which the inhibition at 50 µM is less than 80% in data set [1] (Escherichia coli, ATCC25922, 50 µM, 24 h, n = 3, hit threshold >80%, read-out: inhibition of growth, primary screen); less than 80% in data set [2] (setting [7]); less than 80% in data set [3] (ATCC25923, 24 h); less than 80% in data set [4] (Candida albicans, ATCC90028, 50 µM, 48 h, n = 3, hit threshold >80%, read-out: inhibition of growth, primary screen).
For `CC(C)(C)OC(=O)n1cc(-c2cccc(NC(=O)c3cc4cc(Cl)ccc4[nH]3)c2)nc1N` [Compound 5i, tert-Butyl 2-amino-4-(3-(5-chloro-1H-indole-2-carboxamido)phenyl)-1H-imidazole-1-carboxylate], the melting point is 188 to 190 °C. Besides, in data set [3], the “SI (selectivity index)” value is listed as greater than 8.6. The MIC90 in data set [3] (ATCC25923, 24 h) was determined as 75 µM. In data set [3] (setting [8]), the MIC50 is 11.7 µM (≈ 5.29 µg/mL). The “cytotoxicity at highest tested concentration” value in the data set on Huh-7 cells (100 µM) is “non-cytotoxicity”. In addition, the IC50 at 24 h in data set [5] is greater than 100 µM.
